Like-named read-outs stand apart in the source and are kept apart here.
Tests used:
α4β7 integrin = α4β7 integrin (Homo sapiens (Human), UniProt P13612+P26010); test: Integrin Adhesion Assay: Protocol 4 (MAdCAM-coated plate, RPMI-8866 cells with stable LOF mutation of the ITGB1 gene); type: cell-based
Outline: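 RPMI-8866 cells with CRISPR/Cas9 knockout of ITGB1 (2×10^6/mL) were added to MAdCAM-coated wells with compound (1% DMSO) in HEPES/NaCl buffer with 1 mM MnCl2, 0.1 mM CaCl2 and 1% BSA, then incubated 1 h at 37 °C. After four washes, adherent cells were quantified by CellTiter-Glo luminescence. Percent inhibition versus DMSO and control compound was fitted to 4-parameter curves.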

α4β1 integrin = α4β1 integrin (Homo sapiens (Human), UniProt P05556+P13612); test: Integrin Adhesion Assay: Protocol 5 (VCAM-coated plate, RPMI-8866 cells with stable LOF mutation of the ITGB7 gene); type: cell-based
Chain of α4β1 integrin (P13612 34-1032): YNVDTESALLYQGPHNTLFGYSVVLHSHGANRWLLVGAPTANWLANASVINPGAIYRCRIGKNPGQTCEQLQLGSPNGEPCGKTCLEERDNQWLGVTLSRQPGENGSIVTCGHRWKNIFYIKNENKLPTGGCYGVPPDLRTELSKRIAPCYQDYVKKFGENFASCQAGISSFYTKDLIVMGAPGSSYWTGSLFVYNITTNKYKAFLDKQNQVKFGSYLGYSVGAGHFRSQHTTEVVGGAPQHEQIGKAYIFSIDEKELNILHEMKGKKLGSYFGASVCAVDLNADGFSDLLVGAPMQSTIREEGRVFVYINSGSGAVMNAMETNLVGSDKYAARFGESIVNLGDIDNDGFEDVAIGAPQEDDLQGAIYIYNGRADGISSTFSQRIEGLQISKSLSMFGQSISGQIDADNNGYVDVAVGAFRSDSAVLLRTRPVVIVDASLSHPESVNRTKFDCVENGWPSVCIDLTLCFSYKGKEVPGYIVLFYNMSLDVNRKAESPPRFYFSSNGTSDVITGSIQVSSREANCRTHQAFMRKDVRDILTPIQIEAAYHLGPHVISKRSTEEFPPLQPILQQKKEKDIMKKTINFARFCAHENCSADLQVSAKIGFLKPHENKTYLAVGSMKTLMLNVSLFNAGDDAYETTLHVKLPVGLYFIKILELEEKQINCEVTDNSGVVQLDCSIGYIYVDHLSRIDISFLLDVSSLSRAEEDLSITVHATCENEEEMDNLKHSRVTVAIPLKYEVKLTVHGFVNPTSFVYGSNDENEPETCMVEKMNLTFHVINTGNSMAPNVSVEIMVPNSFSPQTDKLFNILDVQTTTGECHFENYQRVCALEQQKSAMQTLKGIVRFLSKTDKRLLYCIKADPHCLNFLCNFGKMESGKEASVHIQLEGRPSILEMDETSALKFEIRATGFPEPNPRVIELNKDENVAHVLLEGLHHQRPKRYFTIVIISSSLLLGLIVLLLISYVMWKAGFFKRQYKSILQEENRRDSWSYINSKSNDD
Chain of α4β1 integrin (P05556 21-798): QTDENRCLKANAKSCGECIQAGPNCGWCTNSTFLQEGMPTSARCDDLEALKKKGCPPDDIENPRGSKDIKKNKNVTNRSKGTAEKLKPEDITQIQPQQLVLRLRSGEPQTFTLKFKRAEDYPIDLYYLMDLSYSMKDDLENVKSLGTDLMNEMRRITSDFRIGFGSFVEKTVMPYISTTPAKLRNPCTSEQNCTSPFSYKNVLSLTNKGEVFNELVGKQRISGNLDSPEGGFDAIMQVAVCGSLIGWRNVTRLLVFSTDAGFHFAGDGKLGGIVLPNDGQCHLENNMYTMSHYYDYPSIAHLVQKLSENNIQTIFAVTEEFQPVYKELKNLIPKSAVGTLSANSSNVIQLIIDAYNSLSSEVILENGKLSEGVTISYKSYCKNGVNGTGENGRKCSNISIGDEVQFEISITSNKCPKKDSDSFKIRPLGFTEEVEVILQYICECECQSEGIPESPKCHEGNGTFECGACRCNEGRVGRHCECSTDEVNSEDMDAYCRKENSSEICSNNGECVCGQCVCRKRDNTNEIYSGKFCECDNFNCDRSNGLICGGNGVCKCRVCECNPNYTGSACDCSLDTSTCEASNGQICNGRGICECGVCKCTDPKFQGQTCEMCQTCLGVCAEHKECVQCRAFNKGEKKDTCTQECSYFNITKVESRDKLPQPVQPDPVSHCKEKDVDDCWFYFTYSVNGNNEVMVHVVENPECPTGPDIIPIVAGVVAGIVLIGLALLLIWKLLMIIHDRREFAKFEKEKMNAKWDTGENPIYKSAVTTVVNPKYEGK
Outline: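 RPMI-8866 B cells with CRISPR/Cas9 ITGB7 knockout (clonal, verified by flow cytometry) adhered to VCAM-coated wells for 1 h at 37° C in HEPES/NaCl buffer with 1 mM MnCl2, 0.1 mM CaCl2, 1% BSA, 1% DMSO. Bound cells quantified by CellTiter-Glo luminescence after washing; % inhibition versus DMSO and control, 4-parameter fit.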

[1] = Protocol 4, RPMI-8866 cells with LOF mutation of ITGB1, MAdCAM, read-out: Mean IC50 α4β7 KO
[2] = Protocol 5, RPMI-8866 cells with LOF mutation of ITGB7, VCAM, read-out: Mean IC50 α4β1 KO
[3] = RPMI-8866 cells with stable LOF mutation of the ITGB1 gene, read-out: Mean IC50 α4β7 KO^a
[4] = RPMI-8866 cells with stable LOF mutation of the ITGB7 gene, read-out: Mean IC50 α4β1 KO^b

Chain of α4β7 integrin (P13612 34-1032): as the sequence (P13612 34-1032) above
Chain of α4β7 integrin (P26010 20-798): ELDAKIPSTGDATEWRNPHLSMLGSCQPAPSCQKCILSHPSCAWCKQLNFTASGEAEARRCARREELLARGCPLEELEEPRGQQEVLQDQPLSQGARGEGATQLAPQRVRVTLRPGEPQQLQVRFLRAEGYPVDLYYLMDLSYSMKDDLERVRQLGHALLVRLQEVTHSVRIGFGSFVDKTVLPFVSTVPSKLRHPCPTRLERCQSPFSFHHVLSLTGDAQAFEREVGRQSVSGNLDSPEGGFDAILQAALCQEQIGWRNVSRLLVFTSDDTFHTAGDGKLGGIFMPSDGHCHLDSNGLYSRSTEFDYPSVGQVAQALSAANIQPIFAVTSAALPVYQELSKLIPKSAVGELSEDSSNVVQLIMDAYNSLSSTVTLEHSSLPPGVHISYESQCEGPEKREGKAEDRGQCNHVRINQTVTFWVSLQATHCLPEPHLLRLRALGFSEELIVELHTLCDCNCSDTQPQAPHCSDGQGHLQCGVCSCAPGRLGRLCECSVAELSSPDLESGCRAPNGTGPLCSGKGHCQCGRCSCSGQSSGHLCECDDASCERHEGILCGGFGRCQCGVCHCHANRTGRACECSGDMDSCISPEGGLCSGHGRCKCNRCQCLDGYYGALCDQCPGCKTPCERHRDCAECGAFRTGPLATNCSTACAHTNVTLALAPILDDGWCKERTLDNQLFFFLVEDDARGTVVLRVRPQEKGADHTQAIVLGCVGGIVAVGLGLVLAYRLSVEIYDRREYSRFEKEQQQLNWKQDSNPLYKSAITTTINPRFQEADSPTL

SMILES | IC50 (α4β7 integrin; [1]) [nM] | IC50 (α4β1 integrin; [2]) [nM] | IC50 (α4β7 integrin; [3]) [nM] | IC50 (α4β1 integrin; [4]) [nM]
COc1cccc(CCN2CCC(c3ccccc3)CC2)c1-c1cccc2c(C[C@H](NC(=O)C3(C(F)(F)F)CCN(CC(F)(F)F)CC3)C(=O)O)cccc12 [Compound 973] | 10 to 100 | > 1000 | – | –
COc1cccc(F)c1C(=O)N[C@@H](Cc1cccc2c(-c3c(OC)ccc(CN4CCCCC4)c3OC)cccc12)C(=O)O [Compound 647] | – | – | < 10 | 100 to 1000
O=C(O)[C@H](Cc1cccc2c(-c3nccc4c(CN5CC(F)C5)cccc34)cccc12)NC(=O)C1(C(F)(F)F)CCN(CC(F)(F)F)CC1 [Compound 556] | – | – | < 10 | > 1000
O=C(O)[C@H](Cc1cccc2c(-c3nccc4c(CN5CCC(F)(F)C5)cccc34)cccc12)NC(=O)C1(C(F)(F)F)CCN(C2COC2)CC1 [Compound 595] | – | – | < 10 | 100 to 1000
COc1ccc(CN2CCC3(CCOC3)CC2)c(OC)c1-c1cccc2c(C[C@H](NC(=O)c3c(C)cccc3F)C(=O)O)cccc12 [Compound 655] | – | – | < 10 | > 1000
COc1ccc(CN2CCCCC2)nc1-c1cccc2c(C[C@H](NC(=O)c3c(C)cccc3F)C(=O)O)cccc12 [Compound 1016] | < 10 | 100 to 1000 | – | –
COc1ccc(CN2CCC(F)(F)CC2)c(OC)c1-c1cccc2c(C[C@H](NC(=O)c3c(C)cc4cn(CC(F)(F)F)nc4c3F)C(=O)O)cccc12 [Compound 664] | – | – | 100 to 1000 | > 1000
COc1ccc(CN2CCCCC2)nc1-c1cccc2c(C[C@H](NC(=O)C3(C(F)(F)F)CCN(CC(F)(F)F)CC3)C(=O)O)cccc12 [Compound 798] | < 10 | > 1000 | – | –
O=C(O)[C@H](Cc1cccc2c(-c3ncc(CN4CCCCC4)cc3Cl)cccc12)NC(=O)C1(C(F)(F)F)CCN(CC(F)(F)F)CC1 [Compound 761] | 10 to 100 | > 1000 | – | –
COc1cc(CN2CCC(F)(F)CC2)cnc1-c1cccc2c(C[C@H](NC(=O)C3(C(F)(F)F)CCN(CC(F)F)CC3)C(=O)O)cccc12 [Compound 928] | < 10 | > 1000 | – | –
Cn1c(=O)c(-c2cccc3c(C[C@H](NC(=O)C4(C)CCCN(CC5COC5)C4)C(=O)O)cccc23)c(C(F)(F)F)c2ccccc21 (stereo partly drawn) [Compound 520] | – | – | 100 to 1000 | > 1000
COc1ccc(CN(C)C)c(OC)c1-c1cccc2c(C[C@H](NC(=O)c3c(C)cc(C4CC(F)(F)C4)cc3F)C(=O)O)cccc12 [Compound 602] | – | – | < 10 | > 1000
O=C(O)[C@H](Cc1cccc2c(-c3ncc(CN4CCC[C@@H](F)C4)cc3C3CC3)cccc12)NC(=O)C1(C(F)(F)F)CCN(CC(F)F)CC1 [Compound 954] | < 10 | 100 to 1000 | – | –
CN(C)Cc1cccc2c(-c3cccc4c(C[C@H](NC(=O)C5(C(F)(F)F)CCN([C@H]6CCOC6)CC5)C(=O)O)cccc34)nccc12 [Compound 593] | – | – | < 10 | 100 to 1000
CN(C)Cc1ccc2c(-c3cccc4c(C[C@H](NC(=O)C5(C(F)(F)F)CCN(CC(F)(F)F)CC5)C(=O)O)cccc34)nccc2c1 [Compound 584] | – | – | 10 to 100 | > 1000
COc1cc(CCN2CCCCC2)cnc1-c1cccc2c(C[C@H](NC(=O)C3(C(F)(F)F)CCN(CC(F)(F)F)CC3)C(=O)O)cccc12 [Compound 983] | < 10 | > 1000 | – | –
COc1ccc(CN2CCCC(C)C2)c(OC)c1-c1cccc2c(C[C@H](NC(=O)c3c(C)cccc3F)C(=O)O)cccc12 (stereo partly drawn) [Compound 643] | – | – | < 10 | 100 to 1000
CC1(C(=O)N[C@@H](Cc2cccc3c(-c4ncc(CN5CCCCC5)c5ccccc45)cccc23)C(=O)O)CCN(CC(F)(F)F)CC1 [Compound 576] | – | – | < 10 | > 1000
COc1ccc(CN(C)C)c(OC)c1-c1cccc2c(C[C@H](NC(=O)c3c(Cl)cccc3Cl)C(=O)O)cccc12 [Compound 612] | – | – | < 10 | 100 to 1000
O=C(O)[C@H](Cc1cccc2c(-c3nccc4ccc(CCCN5CCC6(CC5)CC6)cc34)cccc12)NC(=O)C1(C(F)(F)F)CCN(C2COC2)CC1 [Compound 773] | < 10 | 100 to 1000 | – | –

SMILES | IC50 (α4β7 integrin; [1]) [nM] | IC50 (α4β1 integrin; [2]) [nM] | IC50 (α4β7 integrin; [3]) [nM] | IC50 (α4β1 integrin; [4]) [nM]
COc1ccc(CN2CCN(Cc3ccc(C(F)(F)F)cc3)CC2)c(OC)c1-c1cccc2c(C[C@H](NC(=O)C3(C(F)(F)F)CCN(CC(F)(F)F)CC3)C(=O)O)cccc12 [Compound 806] | 10 to 100 | > 1000 | – | –
COc1ccc(CN(C)C)c(OC)c1-c1cccc2c(C[C@H](NC(=O)c3c(C)cc(C(F)(F)F)cc3F)C(=O)O)cccc12 [Compound 603] | – | – | 10 to 100 | > 1000
COc1cc2c(cc1-c1cccc3c(C[C@H](NC(=O)c4c(C)cccc4F)C(=O)O)cccc13)CN(CC(F)F)CC2 [Compound 1006] | 10 to 100 | 100 to 1000 | – | –
O=C(O)[C@H](Cc1cccc2c(-c3ncc(CN4CCC5(CC4)CC5)c4ccccc34)cccc12)NC(=O)C1(C(F)(F)F)CCN(CC(F)(F)F)CC1 [Compound 883] | < 10 | > 1000 | – | –
Cn1c(=O)c(-c2cccc3c(C[C@H](NC(=O)C4(C(F)(F)F)CCNCC4)C(=O)O)cccc23)c(C(F)(F)F)c2ccccc21 [Compound 492] | – | – | 10 to 100 | > 1000
COc1ccc(CN2CCC(F)(F)CC2)c(OC)c1-c1cccc2c(C[C@H](NC(=O)C3(C(F)(F)F)CCN([C@@H]4COC[C@@H]4F)CC3)C(=O)O)cccc12 [Compound 668] | – | – | < 10 | > 1000
CC1(C(=O)N[C@@H](Cc2cccc3c(-c4ncc(CN5CCCCC5)c5ccccc45)cccc23)C(=O)O)CC2CCC(C1)N2C1COC1 (stereo partly drawn) [Compound 685] | – | – | 10 to 100 | > 1000
O=C(O)[C@H](Cc1cccc2c(-c3ncc(CN4CCC[C@H](F)C4)c4ccccc34)cccc12)NC(=O)C1(C(F)(F)F)CCN(CC(F)(F)F)CC1 [Compound 852] | 10 to 100 | > 1000 | – | –
O=C(O)[C@H](Cc1cccc2c(-c3ccc(CN4CCCCC4)cn3)cccc12)NC(=O)C1(C(F)(F)F)CCN(CC(F)(F)F)CC1 [Compound 903] | 10 to 100 | > 1000 | – | –
Cn1c(=O)c(-c2cccc3c(C[C@H](NC(=O)C4(C(F)(F)F)CCN([C@@H]5CCC(F)(F)C5)CC4)C(=O)O)cccc23)c(C(F)(F)F)c2ccccc21 [Compound 494] | – | – | 10 to 100 | 100 to 1000
COc1cc(CN2CCCCC2)cc(OC)c1-c1cccc2c(C[C@H](NC(=O)c3c(C)cccc3F)C(=O)O)cccc12 [Compound 1019] | < 10 | 100 to 1000 | – | –
CN(C)Cc1cnc(-c2cccc3c(C[C@H](NC(=O)C4(C(F)(F)F)CCN(CC(F)(F)F)CC4)C(=O)O)cccc23)c2ccccc12 [Compound 921] | < 10 | 100 to 1000 | – | –
COc1ccc(CN2CCC(c3ccncc3)CC2)c(OC)c1-c1cccc2c(C[C@H](NC(=O)C3(C(F)(F)F)CCN(CC(F)(F)F)CC3)C(=O)O)cccc12 [Compound 808] | < 10 | 100 to 1000 | – | –
COc1ccc(CN2CCC(F)C2)c(OC)c1-c1cccc2c(C[C@H](NC(=O)c3c(C)cccc3F)C(=O)O)cccc12 (stereo partly drawn) [Compound 629] | – | – | < 10 | > 1000
COc1cccc(CCN2CCC(C)C(F)(F)CC2)c1-c1cccc2c(C[C@H](NC(=O)C3(C(F)(F)F)CCN(CC(F)(F)F)CC3)C(=O)O)cccc12 (stereo partly drawn) [Compound 972] | < 10 | 100 to 1000 | – | –
COc1ccc(CN2CCC(F)(F)C2)c(OC)c1-c1cccc2c(C[C@H](NC(=O)c3c(C)cccc3F)C(=O)O)cccc12 [Compound 597] | – | – | 10 to 100 | > 1000
CC1(C)CCCN(Cc2cnc(-c3cccc4c(C[C@H](NC(=O)C5(C(F)(F)F)CCN(CC(F)F)CC5)C(=O)O)cccc34)c3ccccc23)CC1 [Compound 916] | < 10 | 100 to 1000 | – | –
COc1ccc(CN2CCC(F)(F)CC2)c(OC)c1-c1cccc2c(C[C@H](NC(=O)C3(C(F)(F)F)CCN(C4COC4)CC3)C(=O)O)cccc12 [Compound 611] | – | – | < 10 | > 1000
O=C(O)[C@H](Cc1cccc2c(-c3nc(CN4CCCCC4)cc4ccccc34)cccc12)NC(=O)C1(C(F)(F)F)CCN(CC(F)(F)F)CC1 [Compound 988] | 10 to 100 | > 1000 | – | –

Source: patent publication US20250313535A1, “ALPHA 4 BETA 7 INTEGRIN MODULATORS AND USES THEREOF” (DICE MOLECULES SV, INC., priority 2022, published 2025)
